Key:
[1] = Simulated bee-flight (drone propeller) thymol decay and model of thymol dosage on a worker bee; design: species or system honey bee; details: 1 mg thymol/Hydromed behind drone propellers, 6 hours per day, exponential decay
Procedure: As such, a single worker bee would pass through the DF-TE 40×, receiving ˜0.7 μg per passage, or 28 μg per day.

[2] = system: Varroa mites; details: concentrated enough to kill the mites but not to harm the bees; cited from earlier work

Cc1ccc(C(C)C)c(O)c1 [thymol]
time until a single daily dose of thymol is exhausted on the bee abdomen [1]: ≤ 4 days | therapeutic window of thymol vapor [2]: 5-15 microgram/liter of hive air
